According to PubChem BioAssay (NCI):
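Values below derive from 48-hour exposures of cells grown in 96-well plates, with endpoints linearly interpolated between the two concentrations bracketing the appropriate inhibition level. GI50 is the concentration that inhibits growth by half. The concentration for full growth arrest is given as TGI.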

Assays:
Assay in all cases: NCI tumour cell line growth inhibition, 48 h
RPMI-8226 leukemia = system: RPMI-8226 leukemia
OVCAR-8 ovarian = system: OVCAR-8 ovarian
NCI-H23 lung = system: NCI-H23 lung
TK-10 renal = system: TK-10 renal
IGROV1 ovarian = system: IGROV1 ovarian
CCRF-CEM leukemia = system: CCRF-CEM leukemia
SF-268 CNS = system: SF-268 CNS
HT29 colon = system: HT29 colon
NCI-H522 lung = system: NCI-H522 lung
K-562 leukemia = system: K-562 leukemia
UO-31 renal = system: UO-31 renal
HS 578T breast = system: HS 578T breast
OVCAR-3 ovarian = system: OVCAR-3 ovarian
OVCAR-5 ovarian = system: OVCAR-5 ovarian
KM12 colon = system: KM12 colon
HL-60(TB) leukemia = system: HL-60(TB) leukemia
HOP-62 NSCLC = system: HOP-62 NSCLC
MALME-3M melanoma = system: MALME-3M melanoma
COLO 205 colon = system: COLO 205 colon
MOLT-4 leukemia = system: MOLT-4 leukemia
MDA-MB-231 breast = system: MDA-MB-231 breast
HCT-15 colon = system: HCT-15 colon
UACC-62 melanoma = system: UACC-62 melanoma
LOX IMVI melanoma = system: LOX IMVI melanoma
SNB-75 CNS = system: SNB-75 CNS
OVCAR-4 ovarian = system: OVCAR-4 ovarian
SK-MEL-5 melanoma = system: SK-MEL-5 melanoma
SK-MEL-2 melanoma = system: SK-MEL-2 melanoma
HCC-2998 colon = system: HCC-2998 colon
SR leukemia = system: SR leukemia
UACC-257 melanoma = system: UACC-257 melanoma
BT-549 breast = system: BT-549 breast
SW-620 colon = system: SW-620 colon
PC-3 prostate = system: PC-3 prostate
MCF7 breast = system: MCF7 breast
SF-539 CNS = system: SF-539 CNS
RXF 393 renal = system: RXF 393 renal
A549 NSCLC = system: A549 NSCLC
M14 melanoma = system: M14 melanoma
NCI/ADR-RES ovarian = system: NCI/ADR-RES ovarian
NCI-H460 lung = system: NCI-H460 lung
786-0 renal = system: 786-0 renal
A498 renal = system: A498 renal
NCI-H226 lung = system: NCI-H226 lung
U251 CNS = system: U251 CNS
MDA-MB-435 = system: MDA-MB-435
SK-MEL-28 melanoma = system: SK-MEL-28 melanoma
ACHN renal = system: ACHN renal
SF-295 CNS = system: SF-295 CNS
HCT-116 colon = system: HCT-116 colon
T-47D breast = system: T-47D breast
SK-OV-3 ovarian = system: SK-OV-3 ovarian
HOP-92 NSCLC = system: HOP-92 NSCLC
SNB-19 CNS = system: SNB-19 CNS
SN12C renal = system: SN12C renal
EKVX NSCLC = system: EKVX NSCLC
DU-145 prostate = system: DU-145 prostate
CAKI-1 renal = system: CAKI-1 renal

In the case of `Cc1cc(-c2ccccn2)cc(C)c1/C=C/c1cncc(-c2nn[nH]n2)c1`, the GI50 (RPMI-8226 leukemia) is reported as > 25 µM, the TGI (RPMI-8226 leukemia) is reported as > 25 µM and the GI50 (OVCAR-8 ovarian) is reported as > 25 µM. For the same molecule, the TGI (OVCAR-8 ovarian) was > 25 µM, the GI50 (NCI-H23 lung) was > 25 µM and the TGI (NCI-H23 lung) was > 25 µM. The GI50 (TK-10 renal) was > 25 µM, the TGI (TK-10 renal) was > 25 µM and the GI50 (IGROV1 ovarian) was > 25 µM. The TGI (IGROV1 ovarian) was > 25 µM, the GI50 (CCRF-CEM leukemia) was > 25 µM and the TGI (CCRF-CEM leukemia) was > 25 µM. For the same molecule, the GI50 (SF-268 CNS) was > 25 µM, the TGI (SF-268 CNS) was > 25 µM and the GI50 (HT29 colon) was > 25 µM. For the same molecule, the TGI (HT29 colon) was > 25 µM, the GI50 (NCI-H522 lung) was > 25 µM and the TGI (NCI-H522 lung) was > 25 µM. The GI50 (K-562 leukemia) was > 25 µM, the TGI (K-562 leukemia) was > 25 µM and the GI50 (UO-31 renal) was > 25 µM. The TGI (UO-31 renal) was > 25 µM, the GI50 (HS 578T breast) was > 25 µM and the TGI (HS 578T breast) was > 25 µM. The GI50 (OVCAR-3 ovarian) was > 25 µM, the TGI (OVCAR-3 ovarian) was > 25 µM and the GI50 (OVCAR-5 ovarian) was > 25 µM. For the same molecule, the TGI (OVCAR-5 ovarian) was > 25 µM, the GI50 (KM12 colon) was > 25 µM and the TGI (KM12 colon) was > 25 µM. For the same molecule, the GI50 (HL-60(TB) leukemia) was > 25 µM, the TGI (HL-60(TB) leukemia) was > 25 µM and the GI50 (HOP-62 NSCLC) was > 25 µM. The TGI (HOP-62 NSCLC) was > 25 µM, the GI50 (MALME-3M melanoma) was > 25 µM and the TGI (MALME-3M melanoma) was > 25 µM. For the same molecule, the GI50 (COLO 205 colon) was > 25 µM, the TGI (COLO 205 colon) was > 25 µM and the GI50 (MOLT-4 leukemia) was > 25 µM. For the same molecule, the TGI (MOLT-4 leukemia) was > 25 µM, the GI50 (MDA-MB-231 breast) was > 25 µM and the TGI (MDA-MB-231 breast) was > 25 µM. For the same molecule, the GI50 (HCT-15 colon) was > 25 µM, the TGI (HCT-15 colon) was > 25 µM and the GI50 (UACC-62 melanoma) was > 25 µM. The TGI (UACC-62 melanoma) was > 25 µM, the GI50 (LOX IMVI melanoma) was > 25 µM and the TGI (LOX IMVI melanoma) was > 25 µM. The GI50 (SNB-75 CNS) was > 25 µM, the TGI (SNB-75 CNS) was > 25 µM and the GI50 (OVCAR-4 ovarian) was > 25 µM. For the same molecule, the TGI (OVCAR-4 ovarian) was > 25 µM, the GI50 (SK-MEL-5 melanoma) was > 25 µM and the TGI (SK-MEL-5 melanoma) was > 25 µM. For the same molecule, the GI50 (SK-MEL-2 melanoma) was > 25 µM, the TGI (SK-MEL-2 melanoma) was > 25 µM and the GI50 (HCC-2998 colon) was > 25 µM. For the same molecule, the TGI (HCC-2998 colon) was > 25 µM, the GI50 (SR leukemia) was > 25 µM and the TGI (SR leukemia) was > 25 µM. The GI50 (UACC-257 melanoma) was > 25 µM, the TGI (UACC-257 melanoma) was > 25 µM and the GI50 (BT-549 breast) was > 25 µM. For the same molecule, the TGI (BT-549 breast) was > 25 µM, the GI50 (SW-620 colon) was > 25 µM and the TGI (SW-620 colon) was > 25 µM. For the same molecule, the GI50 (PC-3 prostate) was > 25 µM, the TGI (PC-3 prostate) was > 25 µM and the GI50 (MCF7 breast) was > 25 µM. For the same molecule, the TGI (MCF7 breast) was > 25 µM, the GI50 (SF-539 CNS) was > 25 µM and the TGI (SF-539 CNS) was > 25 µM. The GI50 (RXF 393 renal) was > 25 µM, the TGI (RXF 393 renal) was > 25 µM and the GI50 (A549 NSCLC) was > 25 µM. The TGI (A549 NSCLC) was > 25 µM, the GI50 (M14 melanoma) was > 25 µM and the TGI (M14 melanoma) was > 25 µM. For the same molecule, the GI50 (NCI/ADR-RES ovarian) was > 25 µM, the TGI (NCI/ADR-RES ovarian) was > 25 µM and the GI50 (NCI-H460 lung) was > 25 µM. For the same molecule, the TGI (NCI-H460 lung) was > 25 µM, the GI50 (786-0 renal) was > 25 µM and the TGI (786-0 renal) was > 25 µM. The GI50 (A498 renal) was > 25 µM, the TGI (A498 renal) was > 25 µM and the GI50 (NCI-H226 lung) was > 25 µM. For the same molecule, the TGI (NCI-H226 lung) was > 25 µM, the GI50 (U251 CNS) was > 25 µM and the TGI (U251 CNS) was > 25 µM. The GI50 (MDA-MB-435) was > 25 µM, the TGI (MDA-MB-435) was > 25 µM and the GI50 (SK-MEL-28 melanoma) was > 25 µM. For the same molecule, the TGI (SK-MEL-28 melanoma) was > 25 µM, the GI50 (ACHN renal) was > 25 µM and the TGI (ACHN renal) was > 25 µM. For the same molecule, the GI50 (SF-295 CNS) was > 25 µM, the TGI (SF-295 CNS) was > 25 µM and the GI50 (HCT-116 colon) was > 25 µM. The TGI (HCT-116 colon) was > 25 µM, the GI50 (T-47D breast) was > 25 µM and the TGI (T-47D breast) was > 25 µM. For the same molecule, the GI50 (SK-OV-3 ovarian) was > 25 µM, the TGI (SK-OV-3 ovarian) was > 25 µM and the GI50 (HOP-92 NSCLC) was > 18.4 µM. For the same molecule, the TGI (HOP-92 NSCLC) was > 25 µM, the GI50 (SNB-19 CNS) was > 25 µM and the TGI (SNB-19 CNS) was > 25 µM. The GI50 (SN12C renal) was > 25 µM, the TGI (SN12C renal) was > 25 µM and the GI50 (EKVX NSCLC) was > 25 µM. The TGI (EKVX NSCLC) was > 25 µM, the GI50 (DU-145 prostate) was > 25 µM and the TGI (DU-145 prostate) was > 25 µM. The GI50 (CAKI-1 renal) was > 25 µM and the TGI (CAKI-1 renal) was > 25 µM.
